Results taken from US12018023B2 (NERVIANO MEDICAL SCIENCES S.R.L., priority 2018, dated 2024).

Key:
[1] = target: T1, IDH1^R132H homodimer enzyme (Homo sapiens, UniProt O75874, R132H); experiment: NADPH depletion assay, IDH1 R132H; type: biochemical
T1 construct: purchased not specified
In short: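 IDH1 R132H enzyme (8 nM as diluted) in Tris-HCl pH 7.6 with 10 mM MgCl2, 0.001% Triton X-100 and 4 mM β-mercaptoethanol is preincubated 15 min at RT with compound. Substrate mix (12 uM NADPH, 3.4 mM α-ketoglutarate) is added for 60 min; remaining NAD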

[2] = target: T2, IDH1^R132C (Homo sapiens, UniProt O75874, R132C); experiment: NADPH depletion assay, IDH1 R132C; type: biochemical
T2 construct: purchased not specified
T2 sequence (O75874 whole entry R132C): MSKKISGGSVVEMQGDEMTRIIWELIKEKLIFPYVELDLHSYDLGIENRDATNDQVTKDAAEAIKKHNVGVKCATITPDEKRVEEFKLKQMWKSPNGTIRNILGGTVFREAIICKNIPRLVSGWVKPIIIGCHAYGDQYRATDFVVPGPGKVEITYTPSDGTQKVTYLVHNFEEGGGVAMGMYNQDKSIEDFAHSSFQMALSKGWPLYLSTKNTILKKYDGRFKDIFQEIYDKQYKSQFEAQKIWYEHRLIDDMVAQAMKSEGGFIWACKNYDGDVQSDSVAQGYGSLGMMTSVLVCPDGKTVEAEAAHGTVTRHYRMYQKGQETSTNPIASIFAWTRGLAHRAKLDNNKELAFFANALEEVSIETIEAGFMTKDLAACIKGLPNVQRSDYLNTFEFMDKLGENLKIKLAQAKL
In short: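 IDH1 R132C (2 nM) preincubated 15 min at RT with compound in Tris-HCl pH 7.6/MgCl2 buffer, then 60 min RT with NADPH and 0.14 mM alpha-ketoglutarate. Remaining NADPH read by diaphorase/resazurin fluorescence (Ex544/Em590).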

[3] = target: T3, IDH2^R172K (Homo sapiens, UniProt P48735, R172K); experiment: NADPH depletion assay, IDH2 R172K; type: biochemical
T3 construct: purchased not specified
T3 sequence (P48735 40-452 R172K): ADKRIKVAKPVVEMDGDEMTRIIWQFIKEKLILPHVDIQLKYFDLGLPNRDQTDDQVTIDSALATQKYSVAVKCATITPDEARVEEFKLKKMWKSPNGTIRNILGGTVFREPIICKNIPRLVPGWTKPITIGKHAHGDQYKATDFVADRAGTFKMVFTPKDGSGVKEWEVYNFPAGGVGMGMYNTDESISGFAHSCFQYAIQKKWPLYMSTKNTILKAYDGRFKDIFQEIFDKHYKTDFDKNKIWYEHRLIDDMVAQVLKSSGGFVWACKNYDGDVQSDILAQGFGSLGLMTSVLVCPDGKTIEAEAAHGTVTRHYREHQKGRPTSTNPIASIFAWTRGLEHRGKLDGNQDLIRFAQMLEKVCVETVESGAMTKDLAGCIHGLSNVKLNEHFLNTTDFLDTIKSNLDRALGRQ
In short: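 IDH2 R172K (16 nM) was preincubated 15 min at RT with compound (1:3 series from 1 mM in DMSO) in Tris pH 7.6/NaCl/MgCl2/Triton/β-mercaptoethanol. The reaction ran 60 min at RT with 0.55 mM alpha-ketoglutarate and NADPH (12 μM in the substrate mix). Remaining NADPH was read with diaphorase/resazurin fluorescence at Ex544/Em590.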

[4] = target: T4, IDH1WT enzyme (Homo sapiens, UniProt O75874); experiment: Enzymatic assay for IDH1 wild-type (NADPH forming assay); type: biochemical
T4 construct: purchased not specified
T4 sequence (O75874 whole entry): as the sequence (O75874 whole entry R132C) above, with C132R counted along it
Protocol: IDH1WT enzymatic activity converting isocitric acid to alpha-ketoglutarate is measured using a NADPH forming assay. In the assay the forming cofactor is measured in continuous with the addition of a catalytic excess of diaphorase and resazurin, to generate a fluorescent signal in proportion to the amount of NADPH forming.
Compounds were preincubated with the enzyme, then the reaction was started by the addition of NADP^+, isocitrate, diaphorase and a corresponding substrate, resazurin. Diaphorase reduces resazurin to the highly fluorescent resorufin with the concomitant oxidation of NADPH to NADP. Specifically, 0.2 uL of test compound, previously serially diluted 1 to 3, 10 experimental points from 1 mM in DMSO, was added to 0.016 nM IDH1WT enzyme in 10 μL of Assay Buffer (150 mM NaCl, 50 mM Tris-HCl pH 7.6, 10 mM MgCl2, 0.001% Triton X-100, 4 mM β-mercaptoethanol); the mixture is incubated for 15 minutes at room temperature. The reaction is started with the addition of 10 μL of Substrate Mix (400 μM NADP^+, 40 μM iso-citrate, 5 ugr/mL Diaphorase and 7 μM resazurin in Assay Buffer), the mixture is incubated at room temperature and the reaction is reading on a ViewLux as platereader at Ex544/Em590 in continuous.

[5] = tested on: HT-1080 (IDH1^R132C); experiment: Cellular 2-HG production assay, HT-1080; type: cell-based; conditions: Homo sapiens, HT-1080, 72 h, inhibition of 2HG production, 72 hr incubation, LC-MS/MS; read-out: HT1080 2-HG IC50
In short: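 Cells in E-MEM/10% FCS (G418 500 μg/mL for the transfected U87-MG line) at 500 per well got compound 24 h after seeding and were incubated 72 h at 37 °C. Medium 2-HG was measured by LC-MS/MS with 2-HG-d3 internal standard; IC50 came from sigmoidal fitting versus controls.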

[6] = tested on: U87MG_IDH1R132H; experiment: Cellular 2-HG production assay, U87-MG-IDH1 R132H; type: cell-based; conditions: inhibition of 2HG production, 72 hr incubation, LC-MS/MS
Protocol: Cell lines HT-1080 (commercially available) and U87-MG-IDH1^R132H (obtained in analoy to the procedure reported in J. Mol. Neurosci 2013, 50, 165-71) are maintained in E-MEM 10% FCS and incubated at 37° C. in a humidified 5% CO2 atmosphere. Stably transfected U87-MG cell lines are also supplemented with 500 μg/mL G418.
Cells are seeded into 96 well black flat bottom plates at a density of 500 cells/well in 100 μL complete medium. After 24 hr the medium is replaced with 200 uL of fresh medium and compounds (dissolved into DMSO) are administrated to the cells using D300E Digital Dispenser (Tecan).
After 72 hr of incubation 100 uL from each well are collected and used for 2HG (R(−)-2-hydroxyglutarate) quantification.
Levels of 2-HG in cell culture media are determined by LC-MS/MS. Cell supernatants (100 μL/well) are treated with 1 M aqueous trichloroacetic acid containing 130 μM of the internal standard 2-HG-d3 (20 μL/well) in a 96-well plate.
The plates are sealed, mildly vortexed for 60 minutes, centrifuged at 4,000 RPM for 15 minutes, placed in a refrigerated autosampler taking care not to shake them, and aliquots of the upper part of the samples are directly injected in the chromatographic system. Calibration standards are obtained by ten fold dilution of aqueous 2-HG stock solutions with blank cell culture medium and denatured exactly in the same way as described above for samples. Samples and standards are assayed for 2-HG by reversed phase chromatography on a C18 column eluted with aqueous 0.15% formic acid and briefly washed with 90% methanol at the end of the run. 2-HG is determined by negative ion electrospray ionization with the internal standard method on a triple quadrupole mass spectrometer monitoring the MRM transitions 147>129 (2-HG) and 150>132 (2-HG-d3). 2-HG inhibition was calculated by comparing treated versus control data using Assay Explore (Symyx) software, with IC50 determined using a sigmoidal fitting algorithm.

T1 sequence (O75874 whole entry R132H): as the sequence (O75874 whole entry R132C) above, with C132H counted along it

Row | SMILES | IC50 [1] [nM] | IC50 [2] [nM] | IC50 [3] [nM] | IC50 [4] [nM] | IC50 [5] [nM] | IC50 [6] [nM]
1 | C=CC(=O)N1CCN(C(CC)c2ccc([C@H](C)Nc3ncc4ccc(=O)n(C(C)C)c4n3)cc2)CC1 (stereo partly drawn) [cpd 187, 2-{[(1S)-1-{4-[1-(4-acryloylpiperazin-1-yl)propyl]phenyl}ethyl]amino}-8-(propan-2-yl)pyrido[2,3-d]pyrimidin-7(8H)-one] | 2 | 2 | 18 | 541 | < 1 | –
2 | C=CC(=O)N1CCN(C(CC2CC2)c2ccc(C3(Nc4ncc5ccc(=O)n(C(C)C)c5n4)CC3)cc2)CC1 (stereo not shown) [cpd 244, 2-[(1-{4-[1-(4-acryloylpiperazin-1-yl)-2-cyclopropylethyl]phenyl}cyclopropyl)amino]-8-(propan-2-yl)pyrido[2,3-d]pyrimidin-7(8H)-one] | 2 | 3 | 21 | 220 | 1.6 | –
3 | C=CC(=O)N1CCN(c2ccc([C@H](C)Nc3ncc4ccc(=O)n([C@@H](C)C(C)C)c4n3)cc2)CC1 [cpd 175, 2-({(1S)-1-[4-(4-acryloylpiperazin-1-yl)phenyl]ethyl}amino)-8-[(2S)-3-methylbutan-2-yl]pyrido[2,3-d]pyrimidin-7(8H)-one] | 65 | 66 | 442 | 1170 | – | 21
4 | C=CC(=O)N1CCN(Cc2ccc([C@H](C)Nc3nc(N)c4ccc(=O)n(C(C)C)c4n3)cc2)CC1 [cpd 206, 2-{[(1S)-1-{4-[(4-acryloylpiperazin-1-yl)methyl]phenyl}ethyl]amino}-4-amino-8-(propan-2-yl)pyrido[2,3-d]pyrimidin-7(8H)-one] | 13 | 15 | 98 | 221 | 10.1 | –
5 | C=CC(=O)N1CCN(C(CC)c2ccc([C@H](C)Nc3ncc4ccc(=O)n(CC)c4n3)cc2)CC1 (stereo partly drawn) [cpd 214, 2-{[(1S)-1-{4-[1-(4-acryloylpiperazin-1-yl)propyl]phenyl}ethyl]amino}-8-ethylpyrido[2,3-d]pyrimidin-7(8H)-one] | 4 | 2 | 15 | 64 | 2.1 | –
6 | C=CC(=O)N1CCN([C@H](CC2CC2)c2ccc([C@H](C)Nc3ncc4ccc(=O)n(C(C)C)c4n3)cc2)CC1 [cpd 231, 2-{[(1S)-1-{4-[(1R)-1-(4-acryloylpiperazin-1-yl)-2-cyclopropylethyl]phenyl}ethyl]amino}-8-(propan-2-yl) pyrido [2,3-d]pyrimidin-7(8H)-one] | 1 | 1 | 14 | 122 | 0.3 | –

Continued, values first:

Row | IC50 [1] [nM] | IC50 [2] [nM] | IC50 [3] [nM] | IC50 [4] [nM] | IC50 [5] [nM] | IC50 [6] [nM] | SMILES
7 | 38 | 31 | 213 | 1820 | – | 24 | C=CC(=O)N1CCN(Cc2ccc([C@H](C)Nc3ncc4ccc(=O)n(CC(C)(C)C)c4n3)cc2F)CC1 [cpd 141, 2-{[(1S)-1-{4-[(4-acryloylpiperazin-1-yl)methyl]-3-fluorophenyl}ethyl]amino}-8-(2,2-dimethylpropyl)pyrido[2,3-d] pyrimidin-7(8H)-one]
8 | 2 | 2 | 20 | 224 | 1 | – | C=CC(=O)N1CCN([C@H](CC2CC2)c2ccc(C3(Nc4ncc5ccc(=O)n(C(C)C)c5n4)CC3)cc2)CC1 (single isomer, unassigned) [cpd 245]
9 | 70 | 116 | 902 | 2990 | 40 | – | C=CC(=O)N1CCN(C(=O)c2ccc([C@H](C)Nc3ncc4ccc(=O)n([C@@H](C)C(C)C)c4n3)cc2F)CC1 [cpd 191, 2-{[(1S)-1-{4-[(4-acryloylpiperazin-1-yl)carbonyl]-3-fluorophenyl}ethyl]amino}-8-[(2S)-3-methylbutan-2-yl]pyrido[2,3-d]pyrimidin-7(8H)-one]
10 | 272 | 196 | 146 | 117 | 64.7 | – | C=CC(=O)N1CCC(C#N)(c2ccc([C@H](C)Nc3ncc4ccc(=O)n(C(C)C)c4n3)cc2)CC1 [cpd 241, 1-acryloyl-4-{4-[(1S)-1-{[7-oxo-8-(propan-2-yl)-7,8-dihydropyrido[2,3-d]pyrimidin-2-yl]amino}ethyl]phenyl}piperidine-4-carbonitrile]
11 | 2 | 1 | 19 | 231 | 2.1 | – | C=CC(=O)N1CCN([C@@H](CC2CC2)c2ccc(C3(Nc4ncc5ccc(=O)n(C(C)C)c5n4)CC3)cc2)CC1 (single isomer, unassigned) [cpd 246]
12 | 4 | 2 | 30 | 216 | 3.1 | – | C=CC(=O)N1CCN([C@H](CC)c2ccc(C3(Nc4ncc5ccc(=O)n(C(C)C)c5n4)CC3)cc2)CC1 (single isomer, unassigned) [cpd 248]
13 | 77 | 37 | 510 | 1730 | – | 81 | C=CC(=O)N1CCC(Oc2ccc([C@H](C)Nc3ncc4ccc(=O)n([C@@H](C)C(C)C)c4n3)cc2)CC1 [cpd 159, 2-{(S)-1-[4-(1-Acryloyl-piperidin-4-yloxy)-phenyl]-ethylamino}-8-((S)-1,2-dimethyl-propyl)-8H-pyrido[2,3-d]pyrimidin-7-one]
14 | 126 | 227 | 201 | 2870 | 28 | – | C=CC(=O)N1CCN(Cc2ccc([C@H](C)Nc3ncc4ccc(=O)n(C(C)C)c4n3)cc2)CC1 [cpd 184, 2-{[(1S)-1-{4-[(4-acryloylpiperazin-1-yl)methyl]phenyl}ethyl]amino}-8-(propan-2-yl)pyrido[2,3-d]pyrimidin-7(8H)-one]
